Assay results: US11634466B2, “Musclin peptides and methods of use thereof” (UNIVERSITY OF IOWA RESEARCH FOUNDATION, priority 2016, dated 2023)

What was measured:
WT and Ostn-KO mice = assay: VO2 max / oxygen consumption on metabolic treadmill (indirect calorimetry) after musclin infusion; type: in vivo; conditions: for oxygen consumption, VO2, over time upon initiation of treadmill exercise: 3 weeks of musclin by osmotic pump
Source text: Natriuretic peptide/cGMP signaling is increasingly recognized as a key regulator of metabolic homeostasis, including effects on skeletal muscle mitochondrial biogenesis and oxidative phosphorylation potential. Maximal aerobic capacity (VO2 max) is commonly used to estimate overall aerobic fitness based on cardiopulmonary function and oxidative phosphorylation potential. To determine whether musclin production impacts aerobic capacity as a potential mechanism underlying differences in exercise tolerance, exercise-trained Ostn-KO and WT mice were monitored on a metabolic treadmill equipped for indirect calorimetry (Columbus instruments, Columbus Ohio). After 5 days of training, mice were placed on the stationary treadmill for 30 minutes and then were exposed to the protocol of escalating exercise workload to determine their VO2 max. […] To assess this, electron micrographs of longitudinal sections through tibialis anterior of exercised mice were examined and appear to show smaller mitochondrial size in the Ostn-KO compared to WT mice (FIG. 6B). […] Furthermore, disruption of normal musclin signaling appears to impact fiber type composition. Specifically, histologic examination of skeletal muscles from Ostn-KO vs. WT mice indicates a shift towards more pure glycolytic type IIb fibers in the KO (FIGS. 10A-10B). Differences between sedentary WT and Ostn-KO mice were less marked (FIGS. 11A-11G), which were consistent with the findings that exercise augments musclin signaling in the WT mice. […] The pattern of distribution of fiber types from muscles of sedentary WT and Ostn-KO was similar to that of their exercise-trained counterparts, consistent with a slower adaptation of fiber type to exercise, except that there was a slightly more prominent component of type IIA fibers in exercised mice (FIG. 12, n=4 each for tibialis anterior and n=3 each for biceps femoris, *p<0.05).
Whole body composition was obtained by time-domain nuclear magnetic resonance under isoflurane anesthesia (Bruker Minispec; Billerica, Mass.). […]
A multi-lane treadmill (Columbus Instruments, Columbus, Ohio) was used to simultaneously exercise model mice with their controls. […] For indirect calorimetry, oxygen consumption (VO2) and CO2 generation were measured using a two-lane modular treadmill connected to the Oxymax indirect calorimetry system (Columbus Instruments, Inc.). […]

[1] = target: T1, NP clearance receptor, NPRC (Homo sapiens, UniProt P17342); conditions: background statement; cited from earlier work
T1 sequence (P17342 27-541): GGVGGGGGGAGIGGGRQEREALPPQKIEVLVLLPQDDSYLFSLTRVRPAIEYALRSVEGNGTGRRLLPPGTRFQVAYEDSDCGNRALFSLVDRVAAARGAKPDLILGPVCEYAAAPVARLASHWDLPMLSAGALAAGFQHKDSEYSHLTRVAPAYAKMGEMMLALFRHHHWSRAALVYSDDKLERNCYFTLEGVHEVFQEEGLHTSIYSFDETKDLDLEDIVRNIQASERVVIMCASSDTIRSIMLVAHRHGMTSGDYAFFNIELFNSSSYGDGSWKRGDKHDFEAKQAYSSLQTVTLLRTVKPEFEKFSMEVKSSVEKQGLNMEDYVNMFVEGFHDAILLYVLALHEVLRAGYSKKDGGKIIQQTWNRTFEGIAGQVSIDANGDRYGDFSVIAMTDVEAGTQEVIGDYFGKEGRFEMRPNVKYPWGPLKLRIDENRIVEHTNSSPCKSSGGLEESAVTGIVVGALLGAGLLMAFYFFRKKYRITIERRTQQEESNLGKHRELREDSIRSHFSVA

NPRA = target: T2, NPRA (Homo sapiens, UniProt P16066); conditions: background statement; without activating the linked guanylyl cyclase; cited from earlier work
T2 sequence (P16066 33-1061): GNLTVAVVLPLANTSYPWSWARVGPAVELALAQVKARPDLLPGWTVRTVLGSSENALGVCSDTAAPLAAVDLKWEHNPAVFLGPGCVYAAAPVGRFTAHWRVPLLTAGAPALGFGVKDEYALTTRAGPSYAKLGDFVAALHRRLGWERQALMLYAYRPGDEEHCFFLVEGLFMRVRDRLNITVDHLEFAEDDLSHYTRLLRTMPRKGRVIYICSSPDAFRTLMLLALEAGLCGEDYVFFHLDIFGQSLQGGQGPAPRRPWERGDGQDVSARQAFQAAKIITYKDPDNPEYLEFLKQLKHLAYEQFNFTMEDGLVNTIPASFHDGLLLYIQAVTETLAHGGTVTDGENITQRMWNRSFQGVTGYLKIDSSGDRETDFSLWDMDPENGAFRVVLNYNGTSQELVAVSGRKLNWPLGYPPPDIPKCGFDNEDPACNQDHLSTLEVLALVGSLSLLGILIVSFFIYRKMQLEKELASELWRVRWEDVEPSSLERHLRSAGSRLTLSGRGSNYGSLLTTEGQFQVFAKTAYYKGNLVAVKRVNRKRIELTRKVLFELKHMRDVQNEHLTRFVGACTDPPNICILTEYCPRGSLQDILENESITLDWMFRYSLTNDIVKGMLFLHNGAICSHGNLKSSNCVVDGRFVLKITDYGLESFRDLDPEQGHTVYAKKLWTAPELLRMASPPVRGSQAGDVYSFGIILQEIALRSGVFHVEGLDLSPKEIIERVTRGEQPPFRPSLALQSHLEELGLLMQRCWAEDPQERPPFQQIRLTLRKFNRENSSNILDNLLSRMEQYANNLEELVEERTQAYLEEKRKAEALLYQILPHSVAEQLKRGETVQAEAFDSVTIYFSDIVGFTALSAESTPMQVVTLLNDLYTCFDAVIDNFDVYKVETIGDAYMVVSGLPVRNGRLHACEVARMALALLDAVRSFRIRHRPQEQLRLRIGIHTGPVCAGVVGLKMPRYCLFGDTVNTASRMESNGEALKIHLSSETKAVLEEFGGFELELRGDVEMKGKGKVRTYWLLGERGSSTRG

H-SFSGFGSPLDRLSAGSVEHRGKQRKAVDHSKKR-OH [musclin]
VO2 max (WT and Ostn-KO mice; Ostn-KO mice after 3 weeks of musclin infusion via osmotic pumps, n=3): 136.6 ± 1.67 mL/min/kg | oxygen consumption, VO2, over time upon initiation of treadmill exercise (WT and Ostn-KO mice; Ostn-KO mice, vs. WT treated with saline): better than WT treated with saline once steady state was achieved | VO2 max (WT and Ostn-KO mice; WT mice after 3 weeks of musclin infusion via osmotic pumps, n=4): 133.9 ± 1.28 mL/min/kg | oxygen consumption, VO2, over time upon initiation of treadmill exercise (WT and Ostn-KO mice; WT mice, vs. WT mice treated with saline): slightly better for several time points | binding to NPRC [1]: affinity comparable to NPs | binding to NPRA (NPRA): weak binding
